# Laboratory results taken from patent publication US20110256557A1, “IDENTIFYING PARATHYROID HORMONE AGONISTS AND ANTAGONISTS” (DISCOVERYBIOMED, INC., priority 2008, published 2011).
# Experiments:
# [1] = tested on: luciferase reporter bearing TCF/LEF binding elements; assay: TCF/LEF luciferase reporter assay in UMR-106 cells; type: cell-based, rat; details: UMR-106 cells, agent alone
# Text: HEK293, UMR-106 and mouse embryonic fibroblast (MEF) cells were maintained in Dulbecco's Modified Eagle Medium (DMEM) with 10% Fetal Calf Serum (FCS). Mouse Wnt3a conditioned medium (Wnt3a CM) was produced from mouse L cells stably transfected with mouse Wnt3a (American Type Culture Collection; Manassas, Va.) and control conditioned medium (Control CM) was from non-transfected L cells. IgG, LRP6N-IgG, DKK1, Sclerostin, VSVG-LRP6N and Myc-Fz8CRD conditioned media were produced from HEK 293 cells transfected with the individual plasmids. Transfections were carried out using lipofectamine reagent (Invitrogen; Carlsbad, Calif.). Luciferase assays were carried out in either UMR-106 or HEK 293 cells as described previously (Wan et al., Am. J. Pathol. 166:1379-92 (2005)), with 0.3 μg of TCF-Luc reporter plasmid plus 50 ng of Renilla luciferase plasmid (internal control) per well in the 12-well plate. Experiments were repeated at least three times with triplicate for each experiment.
# LRP6-PTH1R complex = molecular target: T1, LRP6-PTH1R complex (Rattus norvegicus, UniProt P25961); assay: Co-immunoprecipitation of endogenous LRP6 and PTH1R in UMR-106 cells; type: cell-based; details: IP with antibodies to LRP6, time-dependent
# T1 construct: endogenous LRP6 and endogenous PTH1R in UMR-106 cells; endogenous in cells; host or cells: UMR-106
# T1 sequence (P25961 27-591): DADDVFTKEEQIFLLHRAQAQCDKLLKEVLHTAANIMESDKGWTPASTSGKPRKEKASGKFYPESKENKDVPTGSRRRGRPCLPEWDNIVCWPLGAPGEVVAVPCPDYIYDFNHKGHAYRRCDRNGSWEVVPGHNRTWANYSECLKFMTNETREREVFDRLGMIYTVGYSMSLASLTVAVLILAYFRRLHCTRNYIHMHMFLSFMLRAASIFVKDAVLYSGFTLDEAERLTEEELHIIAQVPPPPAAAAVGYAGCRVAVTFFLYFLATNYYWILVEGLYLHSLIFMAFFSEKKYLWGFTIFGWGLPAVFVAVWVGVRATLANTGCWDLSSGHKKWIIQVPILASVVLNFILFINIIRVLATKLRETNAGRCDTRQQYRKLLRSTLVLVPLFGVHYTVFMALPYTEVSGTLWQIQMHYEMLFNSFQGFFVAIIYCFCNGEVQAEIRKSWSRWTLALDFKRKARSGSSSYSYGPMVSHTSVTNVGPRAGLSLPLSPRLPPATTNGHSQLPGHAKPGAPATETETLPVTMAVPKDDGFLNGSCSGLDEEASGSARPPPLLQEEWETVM
# Protocol: (§1) Cells were harvested in cavitation buffer (5 mM HEPES, pH 7.4, 3 mM MgCl2, 1 mM EGTA, 250 mM sucrose) containing protease and phosphatase inhibitors and homogenized by nitrogen cavitation (200 p.s.i., for 5 minutes) in a cell disruption bomb (Parr Instrument Co.; Moline, Ill.). The cell homogenate was centrifuged twice at 700 g for 10 minutes to pellet the nuclei. The supernatant was further centrifuged at 100,000 g (Beckman SW50.1 rotor) for 1 hour to separate the membrane and cytosol fractions, and the resulting membrane pellet was washed three times with cavitation buffer before use in the assays (Zhang et al., Biochem. J. 343:541-9 (1999)). Immunoprecipitation and Western blot analysis of cell lysates were performed as described previously (Wan et al., Am. J. Pathol. 166:1379-92 (2005)).
# axin1 = assay: Axin1 recruitment to cell membrane, cell fractionation assay in mouse primary preosteoblasts; type: cell-based
# Protocol: Osteoblasts were isolated by digestion of calvaria of newborn mice as described (Wang et al., J. Clin. Invest. 117:1616-26 (2007)). Briefly, calvaria were incubated with 10 ml of digestion solution containing 1.8 mg/ml of collagenase type I (Worthington Biochemical Corp.; Lakewood, N.J.) for 15 minutes at 37° C. under constant agitation. The supernatant was then harvested, replaced with fresh collagenase and the digestion repeated an additional 4 times. Digestion solutions containing the osteoblasts were pooled together. After centrifugation, osteoblasts were obtained and cultured in α-Minimal Essential Media (MEM) containing 10% FBS and 1% penicillin/streptomycin at 37° C. in a humidified incubator supplied with 5% CO2.
# as §1, with “Immunoprecipitation and Western blot analysis of cell lysates were performed as described previously (Wan et al., Am. J. Pathol. 166:1379-92 (2005)).” left out
# [2] = tested on: TCF/LEF luciferase reporter; assay: High-throughput screen validation, TCF/LEF luciferase reporter in osteosarcoma cell line; type: cell-based
# Protocol: Osteosarcoma cells were plated in a 96 well plate. The cells were transiently transfected with the TCF/LEF luciferase reporter using LipofectAMINE PLUS (Invitrogen; Carlsbad, Calif.). The cells were incubated overnight at 37° C. in OptiMEM-1 serum-free medium with the transfection reagents. The cells were washed and serum-containing medium was added to the cells for 8 hours. The serum-containing medium was replaced with serum-free medium and the cells were stimulated overnight with PTH and WNT3a. Supernatant from the stimulated cells was collected for detection of osteosclerostin, and the cells were subjected to a luciferase assay as previously described (Wan et al., Am. J. Pathol. 166:1379-92 (2005)).
# To determine agonists and antagonists of the additive signaling of the PTH receptor and the WNT receptor, (as well as any co-receptors) in bone cells, a high-throughput screen is designed. […] An osteosarcoma cell line is transiently transfected with a TCF/LEF luciferase reporter. The cells are treated with WNT3a and PTH and luciferase activity is determined (FIG. 46).
substance,measurement,setting,value
Parathyroid hormone [PTH],transcription of a luciferase reporter bearing TCF/LEF binding elements,[1],stimulated
same,complex formation of PTH1R with endogenous LRP6,LRP6-PTH1R complex,formed a complex with endogenous LRP6 in response to PTH in a time-dependent manner
same,axin1 level on cell membrane,axin1,increased
same,"stimulation of the TCF/LEF luciferase reporter, treatment alone",[2]; 96-well plate,does not stimulate
same,effect on WNT stimulation of the TCF/LEF luciferase reporter,[2]; PTH and WNT3a treatment,potentiates
